Here are results for 60 molecules from PubChem BioAssay AID623861 (Sanford-Burnham Center for Chemical Genomics, 2012).

Usually EC50 stands for the midpoint of the concentration-response curve.

Activity calls are given as the source filed them.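 How the source made its calls: active means compounds whose EC50 for boosting single-cell stem cell survival is at or below a set limit; inactive means the rest.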

The assay deals with human iPSC single-cell survival, ATP luminescence. In words: human iPSC survival promotion after dissociation – cell-based, luminescence, dose response (AID 623861).

Turning to `COc1ccc2c(c1)c(=O)c(C(=O)c1ccc(Cl)cc1)cn2CC(=O)Nc1ccc(F)cc1`, the EC50 was 15.6 µM.
As for `COc1ccc(C2=CC(=O)C[C@H](c3ccc(OC)c(OC)c3)C2)cn1`, the figure is > 80 µM (inactive); as for `NC(=O)c1ccc(Nc2nc(C(N)c3ccccc3Cl)cs2)cc1` (stereo not given), 39.7 µM (inactive); as for `CCCSc1nc(N2CCOCC2)c2c(c1C#N)CC(C)(C)SC2`, 25.6 µM (inactive).
As for `CC1CCN(C(=O)c2[nH]cnc2C(=O)NCC(=O)OC(C)(C)C)CC1`, the figure is > 80 µM (inactive); as for `Cc1cc(Cl)n2nc(C)c(-c3ccc(Cl)cc3)c2n1`, > 80 µM (inactive).
The result for `Cc1ccsc1C(=O)OCC(=O)Nc1sccc1C(N)=O` reads > 80 µM (inactive); that for `CCOC(=O)c1c(C)nc2sc3c(c2c1-c1ccc(OC)cc1)NC(c1ccccc1)NC3=O` (stereo not given), > 80 µM (inactive); that for `CCOC(=O)c1ccc(NC(=O)c2nc(S(=O)(=O)Cc3ccccc3)ncc2Cl)cc1`, > 80 µM (inactive).
As to `O=C(O)c1cc(C(=O)C2CC2)c[nH]1`, the EC50 was > 80 µM (inactive).
In the case of `COc1ccc(CN(C)CCCn2cnc3c(OC)ncnc32)cc1OC`, the EC50 was > 80 µM (inactive).
The result for `CCCc1ccc(C(=O)N2CCN(c3ccccc3OCC)CC2)cc1` reads > 80 µM (inactive); that for `NC(=O)CC(NC(=O)c1ccccc1)C(=O)O` (stereo not given), > 80 µM (inactive); that for `O=C(CNC(=O)c1ccccc1)OC(C(=O)Nc1cc(C(F)(F)F)ccc1Cl)c1ccccc1` (stereo not given), > 80 µM (inactive).
As for `CCC(OC(=O)c1ccc(S(C)(=O)=O)c([N+](=O)[O-])c1)C(=O)NC1C2CC3CC(C2)CC1C3` (stereo not given), the figure is > 80 µM (inactive); as for `CCC(C(=O)Nc1ccc2[nH]ncc2c1)c1ccccc1` (stereo not given), 9.45 µM; as for `CC(OC(=O)c1ccc2c(=O)n3c(nc2c1)CCC3)C(=O)Nc1ccc(C(N)=O)cc1` (stereo not given), 55.6 µM (inactive).
As for `COc1ccc(N2C(=O)CC(Sc3nccc(C)n3)C2=O)c(OC)c1` (stereo not given), the figure is > 80 µM (inactive); as for `Cc1sc(-c2ccccn2)nc1OC(=O)c1ccc(Cl)c(Cl)c1`, > 80 µM (inactive).
For the molecule `O=c1cc(-c2ccccc2)nc2nc(SCc3ccccc3)[nH]n12`, the EC50 was > 80 µM (inactive).
Consider `Cc1ccc(NS(=O)(=O)c2ccc3c(c2)CC(=O)N3)c(C)c1`, for which the EC50 was > 80 µM (inactive).
In the case of `O=C(Nc1ccncc1)c1c(F)c(F)c(F)c(F)c1F`, the EC50 was 5.93 µM.
As for `Cc1ccc(NC(=O)/C(=C\c2ccc([N+](=O)[O-])cc2)NC(=O)c2ccccc2)cc1`, the figure is > 80 µM (inactive).
The result for `CCCCCCn1c(SCCN2CCOCC2)nc2c1c(=O)[nH]c(=O)n2C` reads > 80 µM (inactive).
As for `COc1ccc(CC(=O)N2N=C(c3ccncc3)CC2(O)C(F)(F)F)cc1` (stereo not given), the figure is > 80 µM (inactive).
Turning to `O=C(Nc1ccncc1)c1c(F)cccc1F`, the concentration giving a half-maximal response (EC50) was 3.27 µM.
As for `CC(OC(=O)c1ccc(S(C)(=O)=O)c([N+](=O)[O-])c1)C(=O)NC1C2CC3CC(C2)CC1C3` (stereo not given), the figure is > 80 µM (inactive); as for `CC(C)CCNC(=O)c1onc(CSc2ccc(F)cc2)c1C(=O)NCCC(C)C`, > 80 µM (inactive); as for `CS(=O)(=O)Nc1ccc2c3c(cccc13)CC2`, > 80 µM (inactive).
Consider `O=C(NC1CCCCC1)N(Cc1nc2ccccc2c(=O)[nH]1)C1CCCCC1`, for which the EC50 is > 80 µM (inactive).
Consider `CN(C(=O)COC(=O)c1nc(Cl)c(Cl)c(Cl)c1Cl)C1CCS(=O)(=O)C1` (stereo not given), for which the EC50 was 31.1 µM (inactive).
As for `CCn1c(Cl)c(C=O)s/c1=N\S(=O)(=O)c1ccccc1`, the figure is 24.8 µM (inactive).
As for `O=C1/C(=C/c2ccncc2)CCC/C1=C\c1ccncc1`, the figure is 10.1 µM; as for `Oc1ccc(-c2onc(C(F)(F)F)c2-c2cscn2)c(O)c1`, > 80 µM (inactive); as for `Cc1c(C(=O)NCc2ccccc2C(F)(F)F)sc(=O)n1Cc1ccc2ccccc2c1`, > 80 µM (inactive).
As for `O=C(COC(=O)c1ccccc1C(=O)c1ccc(Cl)c([N+](=O)[O-])c1)NC1CC1`, the figure is > 80 µM (inactive); as for `C=C(C)[C@@]12OC3(c4ccccc4)O[C@@H]1C1[C@@H]4O[C@]4(CO)[C@@H](O)[C@]4(O)C(=O)C(C)=C[C@H]4[C@@]1(O3)[C@H](C)[C@H]2OC(=O)/C=C/C=C/c1ccccc1` (stereo not given in full), < 0.156 µM.
Take `Cc1ccc(CN2CCN(Cc3cn(C)nc3C)CC2CCO)o1` (stereo not given): the EC50 is > 80 µM (inactive).
The result for `C[C@@H](NC(=O)[C@@H]1Cc2ccccc2CN1)C(=O)Nc1ccc2c(c1)OCO2` reads > 80 µM (inactive).
As for `O=c1c(Cl)c(Cl)cnn1Cc1nnc(-c2ccccc2Br)o1`, the figure is 8.37 µM; as for `CC(C)(C)NC(=O)Cn1nnc(-c2ccccc2NC(=O)c2cnccn2)n1`, 10.8 µM.
As for `O=C(O)c1ccccc1C(=O)NCC(O)COCC1CC=CCC1` (stereo not given), the figure is > 80 µM (inactive); as for `COC(=O)c1ccc(C(=O)OC)c(NC(=O)CSc2cccc[n+]2[O-])c1`, > 80 µM (inactive).
For `CCOc1ccc(S(=O)(=O)Nc2cccc(C(=O)N3CCN(c4ccc(OC)cc4)CC3)c2)cc1`, the EC50 is > 80 µM (inactive).
The result for `COc1ccc(C(C#N)(CC(=O)O)c2cnccn2)cc1OC` (stereo not given) reads > 80 µM (inactive); that for `c1ccc(CN2CCN(c3nc(NCc4ccco4)c4ccccc4n3)CC2)cc1`, 1.05 µM.
Take `Cn1c(=O)cc(OCCCC(=O)Nc2cccc(Cl)c2)c2ccccc21`: the EC50 was > 80 µM (inactive).
The result for `CN(CCOc1ccc(-c2ccn(S(=O)(=O)c3c(Cl)cccc3Cl)n2)cc1)c1ccccn1` reads > 80 µM (inactive); that for `CC(=O)c1ccccc1NC(=O)COC(=O)CCCN1C(=O)c2cccc3cccc(c23)C1=O`, > 80 µM (inactive).
On to `CCCOC(=O)C1NC(=O)N2C(C(=O)OCCC)C(C)(C)S[C@H]12` (stereo not given in full), for which the EC50 is > 80 µM (inactive).
As to `CCCOC(=O)Oc1ccc2c(=O)c(Oc3cc(C)cc(C)c3)coc2c1`, the EC50 was > 80 µM (inactive).
As for `CCOC(=O)c1c(-c2cc(OC)c(OC)c(OC)c2)csc1N`, the figure is > 80 µM (inactive).
The result for `Cn1nc(-c2ccccc2)c(C(O)c2ccccc2C(F)(F)F)c1Cl` (stereo not given) reads > 80 µM (inactive); that for `CC(C)C12CN3CC(C(C)C)(CN(C1)C3c1ccccc1O)C2=O` (stereo not given), > 80 µM (inactive); that for `COc1ccc(S(=O)(=O)Nc2ccc3c(c2)C(=O)N([C@H](C)CO)C[C@H](C)[C@@H](CN(C)C(=O)NC2CCCCC2)O3)cc1`, > 80 µM (inactive).
As for `CCCCc1cc(=O)oc2cc(OCc3cc(OC)c(OC)c(OC)c3)c(Cl)cc12`, the figure is > 80 µM (inactive).
On to `O=C(NCc1ccccc1)c1ccc(-c2cn[nH]c2)c2ccoc12`, for which the EC50 was 1.22 µM.
Consider `CCS(=O)(=O)c1ncc(Cl)c(C(=O)Nc2ccc(S(=O)(=O)N(C)c3ccccc3)cc2)n1`, for which the EC50 was > 80 µM (inactive).
As for `CS(=O)(=O)N(Cc1cc2ccccc2[nH]c1=O)C1CCCCC1`, the figure is > 80 µM (inactive); as for `N#C/C(=C/c1cccc([N+](=O)[O-])c1)c1nnc2n1CCCCC2`, 7.37 µM.
